Our source for the EC50 and Ki values is article PMC8094182, “8-Substituted Triazolobenzodiazepines: In Vitro and In Vivo Pharmacology in Relation to Structural Docking at the α1 Subunit-Containing GABAA Receptor” (Frontiers in Pharmacology, 2021).

Assay [1] deals with T1, rat α5β3γ2 GABAA receptor (α5GABAA) (Rattus norvegicus, UniProt P18508+P19969).
T1 construct: gene Gabra5; Full-length subunits co-expressed; pentamer; with Gamma-aminobutyric acid receptor subunit beta-3
The assay is described as follows: two-electrode voltage clamp, Xenopus oocytes, potentiation of GABA EC3 current. Particulars: read-out: α5. The assay is classed as cell-based. The text has this:
two-electrode voltage clamp, Xenopus oocytes, potentiation of GABA EC3 current on rat α5β3γ2 GABAA receptor (α5GABAA)
For orientation: Two-electrode voltage clamp is typically applied to oocytes expressing channels or transporters.

Assay [2] has as its target T2, rat α1β3γ2 GABAA receptor (α1GABAA) (Rattus norvegicus, UniProt P18508+P62813).
T2 construct: gene Gabra1; Full-length subunits co-expressed; pentamer; with Gamma-aminobutyric acid receptor subunit beta-3
Described as above. The assay is classed as cell-based. The note with it: read-out: α1. An excerpt:
two-electrode voltage clamp, Xenopus oocytes, potentiation of GABA EC3 current on rat α1β3γ2 GABAA receptor (α1GABAA)

Assay [3] has as its target T2, rat α1β3γ2 GABAA receptor (α1GABAA). The assay is described as follows: [3H]flunitrazepam displacement, HEK […] membranes, filtration. The assay is classed as binding. Particulars: read-out: α1.
Assay [4] has as its target T1, rat α5β3γ2 GABAA receptor (α5GABAA). Described as above. The assay is classed as binding. Particulars: read-out: α5.
The target in assay [5] is T3, rat α3β3γ2 GABAA receptor (α3GABAA) (Rattus norvegicus, UniProt P18508+P20236).
T3 construct: gene Gabra3; Full-length subunits co-expressed; pentamer; with Gamma-aminobutyric acid receptor subunit beta-3
Nature of the assay: two-electrode voltage clamp, Xenopus oocytes, potentiation of GABA EC3 current. The class given is cell-based. The note with it: read-out: α3. An excerpt: two-electrode voltage clamp, Xenopus oocytes, potentiation of GABA EC3 current on rat α3β3γ2 GABAA receptor (α3GABAA)

The target of assay [6] is T3, rat α3β3γ2 GABAA receptor (α3GABAA). Nature of the assay: [3H]flunitrazepam displacement, HEK […] membranes, filtration. The assay is classed as binding. Particulars: read-out: α3.
Assay [7] has as its target T4, rat α2β3γ2 GABAA receptor (α2GABAA) (Rattus norvegicus, UniProt P18508+P23576).
T4 construct: gene Gabra2; Full-length subunits co-expressed; pentamer; with Gamma-aminobutyric acid receptor subunit beta-3
Described as above. The class given is binding. The note with it: read-out: α2.

Assay [8] has as its target T4, rat α2β3γ2 GABAA receptor (α2GABAA). Nature of the assay: two-electrode voltage clamp, Xenopus oocytes, potentiation of GABA EC3 current. The class given is cell-based. Particulars: read-out: α2. The text has this: two-electrode voltage clamp, Xenopus oocytes, potentiation of GABA EC3 current on rat α2β3γ2 GABAA receptor (α2GABAA)

T3 sequence (P20236 29-493): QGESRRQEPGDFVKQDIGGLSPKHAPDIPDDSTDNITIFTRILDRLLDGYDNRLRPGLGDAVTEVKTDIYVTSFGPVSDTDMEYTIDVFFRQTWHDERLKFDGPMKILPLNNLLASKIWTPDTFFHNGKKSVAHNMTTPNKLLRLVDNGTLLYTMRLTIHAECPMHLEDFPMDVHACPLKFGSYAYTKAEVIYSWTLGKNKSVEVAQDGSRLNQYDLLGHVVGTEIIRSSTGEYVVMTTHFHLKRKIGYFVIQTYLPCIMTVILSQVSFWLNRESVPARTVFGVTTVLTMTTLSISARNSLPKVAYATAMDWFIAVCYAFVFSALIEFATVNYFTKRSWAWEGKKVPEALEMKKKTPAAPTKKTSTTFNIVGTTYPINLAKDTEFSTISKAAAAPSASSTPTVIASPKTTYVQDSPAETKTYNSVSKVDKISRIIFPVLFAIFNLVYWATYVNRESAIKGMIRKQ
T3 sequence (P18508 39-466): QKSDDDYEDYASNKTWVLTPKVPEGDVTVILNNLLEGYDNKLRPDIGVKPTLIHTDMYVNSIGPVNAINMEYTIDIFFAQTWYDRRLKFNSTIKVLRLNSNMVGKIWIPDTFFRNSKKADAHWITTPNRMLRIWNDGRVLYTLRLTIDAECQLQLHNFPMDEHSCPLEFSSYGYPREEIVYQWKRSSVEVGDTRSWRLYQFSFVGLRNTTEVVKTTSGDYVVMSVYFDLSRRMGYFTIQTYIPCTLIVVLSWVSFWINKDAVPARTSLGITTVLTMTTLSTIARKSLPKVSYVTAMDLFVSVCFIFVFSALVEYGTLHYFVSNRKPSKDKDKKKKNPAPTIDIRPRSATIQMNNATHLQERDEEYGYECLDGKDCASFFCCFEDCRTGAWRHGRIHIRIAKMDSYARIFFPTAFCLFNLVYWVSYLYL
T3 sequence (P63079 26-473 partner): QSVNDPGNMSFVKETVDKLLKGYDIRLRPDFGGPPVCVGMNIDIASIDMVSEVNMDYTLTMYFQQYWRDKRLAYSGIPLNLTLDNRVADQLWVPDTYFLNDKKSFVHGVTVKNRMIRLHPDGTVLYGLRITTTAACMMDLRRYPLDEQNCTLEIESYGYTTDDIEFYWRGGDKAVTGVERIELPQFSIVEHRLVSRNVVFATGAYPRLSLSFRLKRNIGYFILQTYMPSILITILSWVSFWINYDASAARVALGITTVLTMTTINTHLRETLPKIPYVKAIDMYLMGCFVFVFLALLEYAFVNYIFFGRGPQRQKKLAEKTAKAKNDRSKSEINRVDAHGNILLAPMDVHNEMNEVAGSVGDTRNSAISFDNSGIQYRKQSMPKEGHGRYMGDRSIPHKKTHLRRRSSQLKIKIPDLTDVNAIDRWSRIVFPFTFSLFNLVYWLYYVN
T4 sequence (P23576 29-451): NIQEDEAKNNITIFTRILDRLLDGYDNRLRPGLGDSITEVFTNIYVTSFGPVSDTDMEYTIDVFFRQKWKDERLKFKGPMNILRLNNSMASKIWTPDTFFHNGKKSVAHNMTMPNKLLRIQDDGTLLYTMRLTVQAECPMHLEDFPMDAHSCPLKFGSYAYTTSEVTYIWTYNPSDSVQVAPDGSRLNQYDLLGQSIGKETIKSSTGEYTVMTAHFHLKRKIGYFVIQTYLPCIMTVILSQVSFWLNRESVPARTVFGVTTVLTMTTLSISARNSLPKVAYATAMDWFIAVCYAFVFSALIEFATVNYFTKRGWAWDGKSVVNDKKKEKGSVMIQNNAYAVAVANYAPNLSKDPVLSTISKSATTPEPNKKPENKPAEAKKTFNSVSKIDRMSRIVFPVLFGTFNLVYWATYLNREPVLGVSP
T4 sequence (P18508 39-466): as the sequence (P18508 39-466) above
T4 sequence (P63079 26-473 partner): as the sequence (P63079 26-473 partner) above
T1 sequence (P19969 26-464): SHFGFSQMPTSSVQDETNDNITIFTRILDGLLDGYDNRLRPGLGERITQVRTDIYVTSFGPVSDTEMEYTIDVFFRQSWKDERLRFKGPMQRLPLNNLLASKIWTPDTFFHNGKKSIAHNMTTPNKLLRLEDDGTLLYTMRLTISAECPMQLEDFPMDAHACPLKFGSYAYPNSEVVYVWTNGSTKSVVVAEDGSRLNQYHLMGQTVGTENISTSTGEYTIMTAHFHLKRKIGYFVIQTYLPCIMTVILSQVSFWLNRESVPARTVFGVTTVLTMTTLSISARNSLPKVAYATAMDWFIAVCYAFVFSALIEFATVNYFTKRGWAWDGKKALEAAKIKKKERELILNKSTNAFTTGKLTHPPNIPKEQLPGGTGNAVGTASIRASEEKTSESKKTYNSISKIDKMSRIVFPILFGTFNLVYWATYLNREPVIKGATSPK
T1 sequence (P18508 39-466): as the sequence (P18508 39-466) above
T1 sequence (P63079 26-473 partner): as the sequence (P63079 26-473 partner) above
T2 sequence (P62813 28-455): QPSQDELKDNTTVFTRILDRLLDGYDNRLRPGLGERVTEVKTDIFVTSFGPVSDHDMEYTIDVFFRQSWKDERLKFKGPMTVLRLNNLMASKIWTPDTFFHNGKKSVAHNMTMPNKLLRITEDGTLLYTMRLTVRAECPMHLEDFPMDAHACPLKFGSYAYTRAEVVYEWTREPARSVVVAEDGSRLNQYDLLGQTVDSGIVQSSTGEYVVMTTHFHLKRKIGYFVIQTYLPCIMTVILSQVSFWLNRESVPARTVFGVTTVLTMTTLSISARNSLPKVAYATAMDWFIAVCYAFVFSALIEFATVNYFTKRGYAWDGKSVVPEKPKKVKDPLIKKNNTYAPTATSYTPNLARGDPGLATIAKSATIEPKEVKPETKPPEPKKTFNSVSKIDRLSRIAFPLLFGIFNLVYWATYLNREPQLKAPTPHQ
T2 sequence (P18508 39-466): as the sequence (P18508 39-466) above
T2 sequence (P63079 26-473 partner): as the sequence (P63079 26-473 partner) above

Regarding `C#Cc1ccc2c(c1)C(c1ccccc1Cl)=NCc1nnc(C)n1-2` [XLi-JY-DMH, 6-(2-chlorophenyl)-8-ethynyl-1-methyl-4H-benzo [f][1,2,4]triazolo[4,3-a][1,4]diazepine], the EC50 in assay [1] came to 14.9 nM; in assay [2], 35.2 nM; in assay [5] it was 47 nM; in assay [8] it was 20.7 nM. Moreover, the Ki in assay [3] came to 7.7 ± 5.5 nM; in assay [4] it was 3.8 ± 1 nM; in assay [6], 4.2 ± 1.6 nM; in assay [7] it was 7.2 ± 3 nM.
